Results on 8 compounds are retold here after publication PMC5705954, “Investigation of Non-Covalent Interactions of Aflatoxins (B1, B2, G1, G2, and M1) with Serum Albumin” (Toxins, 2017).

Data set [1] concerns the target bovine serum albumin (BSA) (Bos taurus, UniProt P02769). The data set is classed as binding. Particulars: pH 7.4.
Data set [2] has as its target porcine serum albumin (PSA) (Sus scrofa, UniProt P08835). The data set is classed as binding. Particulars: pH 7.4.
The next data set has as its target rat serum albumin (RSA) (Rattus norvegicus, UniProt P02770). The data set is classed as binding. The conditions noted are these: pH 7.4.
Data set [3] has as its target warfarin-HSA interaction (Sudlow's Site I) (Homo sapiens, UniProt P02768). The data set is classed as binding.
Data set [4] concerns the target T1, human serum albumin (HSA) (Homo sapiens, UniProt P02768). The data set can be described thus: Fluorescence quenching of HSA by aflatoxins. The data set is classed as binding. Further details: purchased Sigma-Aldrich. Particulars: pH 7.4. The method, then:
In order to characterize aflatoxin-HSA interactions, fluorescence quenching studies were performed. Increasing aflatoxin concentrations (0–10 μM) were added to a standard amount of HSA (2 μM) then fluorescence emission spectra of HSA were recorded (λexc = 280 nm). […] To exclude the possible involvement of the inner filter effect, fluorescence emission intensities were corrected based on the absorbance of aflatoxins (Equation (1)). […].
Fluorescence measurements were performed employing Hitachi F-4500 fluorescence spectrophotometer. UV-Vis spectra were recorded applying Specord Plus 210 (Analytic Jena AG, Jena, Germany) spectrophotometer. All measurements were carried out at 25 °C.
During fluorescence quenching experiments, emission intensities of albumin were determined in the presence of 2 μM albumin with and without aflatoxins (0–10 μM) using 280 and 334 nm as excitation and emission wavelengths, respectively. Inner filter effects of aflatoxins were eliminated applying the following equation [33]:(1) Icor=Iobs×e^(Aexc+Aem)/2 where Icor and Iobs are the corrected and observed fluorescence emission intensities, respectively; while Aexc and Aem are the absorption of aflatoxins at 280 and 334 nm, respectively.
Complex formations of aflatoxins with albumins were investigated applying the Stern-Volmer equation:(2) I0/I=1+KSV×[Q] where I and I0 denote the fluorescence intensities of albumin with and without aflatoxins, respectively. KSV (with the unit of dm^3/mol) is the Stern-Volmer quenching constant and [Q] is the molar concentration of aflatoxins.
Association constants (Ka) and number of binding sites (n) were determined by linear fitting, employing the double logarithmic Stern-Volmer equation [33]:(3) log(I0−I)/I=logKa+n×log[Q] where I and I0 denote the fluorescence intensities of albumin with and without aflatoxins, respectively; while [Q] is the molar concentration of aflatoxins.
Thereafter, binding constants of aflatoxin-albumin complexes were quantified by Hyperquad2006 program package, assuming 1:1 stoichiometry, (4) I=I0+(IHG−I0)/2⋅[H]0⋅([H]0+[G]0+1/K−([H]0+[G]0+1/K)^2−4⋅[H]0⋅[G]0) where, I0 and I denote the emission intensities of albumin at 334 nm in the absence and presence of aflatoxins, respectively; IHG is the emission intensity of pure aflatoxin-albumin complex at 334 nm (calculated by the Hyperquad2006); K denotes the binding constant (with the unit of dm^3/mol); [H]0 and [G]0 are the total concentrations of albumin and aflatoxin, respectively.

The target of data set [5] is T1, human serum albumin (HSA). The data set can be described thus: Thermodynamic studies (van't Hoff) of complex formation with HSA. Further details: purchased Sigma-Aldrich. The data set is classed as binding. On the procedure:
In order to investigate the temperature dependence of AFB1-HSA interaction, binding constants were determined between 25 and 40 °C. […] Using the temperature-dependence of the stability constants, the thermodynamic parameters associated to the interaction of AFB1 with HSA was also determined using the van’t Hoff equation (Equation (5)). […]. This value is within the typical range of non-covalent interactions. ΔH and ΔS values of the AFB1-HSA complex formation were −10.48 kJ mol^−1 and 55.1 JK^−1 mol^−1, respectively. Comparing these values with the parameters obtained for previously examined mycotoxin-albumin complexes, namely citrinin-HSA and zearalenone-HSA (Table 1), we can conclude that the smaller enthalpy change is associated with higher entropy gain in agreement with the enthalpy-entropy compensation. […]
Fluorolog τ3 spectrofluorometric system (Jobin-Yvon/SPEX) was applied during thermodynamic studies using 280 nm excitation wavelength. […] The binding constants were determined by the Hyperquad2006 program package (Equation (4)). The enthalpy and entropy changes of complex formation between AFB1 and HSA molecules were calculated as follows: the logarithms of binding constants (logK) at different temperatures were plotted against the reciprocal temperature according to the van’t Hoff equation. […]

Data set [6] concerns the target T1, human serum albumin (HSA). Particulars: cited from earlier work.
Data set [7] deals with T1, human serum albumin (HSA). Also noted: purchased Sigma-Aldrich. Particulars: cited from earlier work.
Setting [8] is: previously reported data ref 16.
The mark [9] stands for this setting: previously reported data ref 20.

Like-named read-outs stand apart in the source and are kept apart here.

Sequence of rat serum albumin (RSA) (P02770 25-608 limits assumed): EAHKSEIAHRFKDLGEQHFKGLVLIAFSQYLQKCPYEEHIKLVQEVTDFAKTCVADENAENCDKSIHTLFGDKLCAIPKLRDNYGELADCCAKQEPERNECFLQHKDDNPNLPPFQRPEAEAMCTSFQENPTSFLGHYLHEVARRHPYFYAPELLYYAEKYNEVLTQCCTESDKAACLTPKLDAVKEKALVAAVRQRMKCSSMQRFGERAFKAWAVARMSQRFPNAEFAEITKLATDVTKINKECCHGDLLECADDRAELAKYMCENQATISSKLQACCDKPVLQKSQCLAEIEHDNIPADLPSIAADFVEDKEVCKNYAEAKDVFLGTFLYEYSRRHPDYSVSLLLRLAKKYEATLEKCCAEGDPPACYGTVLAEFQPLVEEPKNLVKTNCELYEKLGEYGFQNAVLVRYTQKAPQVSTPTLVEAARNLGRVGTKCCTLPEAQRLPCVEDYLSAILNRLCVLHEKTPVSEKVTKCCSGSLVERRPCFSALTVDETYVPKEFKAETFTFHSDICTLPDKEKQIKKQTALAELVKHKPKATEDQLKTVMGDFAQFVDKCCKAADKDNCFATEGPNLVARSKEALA
Sequence of warfarin-HSA interaction (Sudlow's Site I) (P02768 25-609 limits assumed): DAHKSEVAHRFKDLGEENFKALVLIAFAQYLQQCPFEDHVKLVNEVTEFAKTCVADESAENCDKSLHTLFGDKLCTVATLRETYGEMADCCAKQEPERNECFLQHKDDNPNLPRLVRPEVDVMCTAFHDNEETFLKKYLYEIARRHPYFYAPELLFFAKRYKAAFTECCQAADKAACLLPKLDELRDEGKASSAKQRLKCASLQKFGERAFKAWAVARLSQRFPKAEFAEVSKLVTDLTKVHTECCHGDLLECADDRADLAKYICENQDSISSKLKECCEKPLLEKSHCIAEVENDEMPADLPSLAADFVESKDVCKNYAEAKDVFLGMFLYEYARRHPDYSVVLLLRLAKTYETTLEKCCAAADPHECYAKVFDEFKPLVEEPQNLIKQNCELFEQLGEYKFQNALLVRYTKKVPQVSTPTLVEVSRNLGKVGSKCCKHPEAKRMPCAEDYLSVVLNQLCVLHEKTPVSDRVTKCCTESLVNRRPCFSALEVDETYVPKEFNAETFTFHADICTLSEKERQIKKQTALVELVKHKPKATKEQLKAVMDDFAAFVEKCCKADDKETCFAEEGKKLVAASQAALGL
T1 sequence (P02768 25-609): as the sequence (P02768 25-609 limits assumed) above
Sequence of bovine serum albumin (BSA) (P02769 25-607 limits assumed): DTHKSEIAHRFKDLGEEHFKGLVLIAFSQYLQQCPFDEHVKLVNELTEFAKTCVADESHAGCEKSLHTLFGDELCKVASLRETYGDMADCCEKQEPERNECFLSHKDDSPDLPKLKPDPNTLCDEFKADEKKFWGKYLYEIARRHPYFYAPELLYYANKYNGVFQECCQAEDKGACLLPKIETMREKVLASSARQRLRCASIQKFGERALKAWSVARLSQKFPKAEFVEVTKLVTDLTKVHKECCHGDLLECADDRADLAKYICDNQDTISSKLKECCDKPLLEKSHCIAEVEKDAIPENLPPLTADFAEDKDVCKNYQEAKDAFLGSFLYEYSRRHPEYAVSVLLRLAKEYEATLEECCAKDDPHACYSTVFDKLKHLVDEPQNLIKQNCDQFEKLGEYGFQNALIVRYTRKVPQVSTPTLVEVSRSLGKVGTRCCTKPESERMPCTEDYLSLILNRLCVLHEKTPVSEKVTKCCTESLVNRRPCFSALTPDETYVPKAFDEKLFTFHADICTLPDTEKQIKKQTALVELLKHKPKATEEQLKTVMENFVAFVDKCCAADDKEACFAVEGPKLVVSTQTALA
Sequence of porcine serum albumin (PSA) (P08835 25-607 limits assumed): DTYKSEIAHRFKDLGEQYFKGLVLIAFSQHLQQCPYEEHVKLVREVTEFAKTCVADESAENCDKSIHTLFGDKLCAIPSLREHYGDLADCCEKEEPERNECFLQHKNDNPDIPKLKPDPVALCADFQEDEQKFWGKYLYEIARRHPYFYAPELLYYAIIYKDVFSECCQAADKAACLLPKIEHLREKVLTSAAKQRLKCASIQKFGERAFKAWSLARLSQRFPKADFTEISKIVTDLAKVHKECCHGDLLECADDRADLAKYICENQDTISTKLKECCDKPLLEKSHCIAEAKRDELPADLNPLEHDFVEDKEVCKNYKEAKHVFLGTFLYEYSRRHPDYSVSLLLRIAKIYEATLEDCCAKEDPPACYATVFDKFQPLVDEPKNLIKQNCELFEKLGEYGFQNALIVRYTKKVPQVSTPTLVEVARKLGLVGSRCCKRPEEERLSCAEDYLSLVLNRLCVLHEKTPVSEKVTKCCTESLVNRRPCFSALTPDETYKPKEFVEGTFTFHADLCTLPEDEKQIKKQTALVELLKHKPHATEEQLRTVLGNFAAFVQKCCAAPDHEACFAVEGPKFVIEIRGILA

Consider `COc1cc2c(c3oc(=O)c4c(c13)CCC4=O)[C@H]1C=CO[C@H]1O2` [AFB1, aflatoxin B1], for which, in data set [1], the “logK (binding constant)” value was 4.63 ± 0.01, the “logKSV (Stern-Volmer quenching constant)” value stood at 4.41 ± 0.06, the “logKa (association constant)” value came to 4.44 ± 0.01 and the “n (number of binding sites)” value was 1.006 ± 0.015. In addition, in data set [2], the “logK (binding constant)” value was 4.62 ± 0.01, the “logKSV (Stern-Volmer quenching constant)” value stood at 4.45 ± 0.00, the “logKa (association constant)” value was 4.52 ± 0.10 and the “n (number of binding sites)” value was found to be 1.023 ± 0.034. Moreover, at rat serum albumin (RSA), the “logK (binding constant)” value worked out at 4.91 ± 0.01, the “logKSV (Stern-Volmer quenching constant)” value stood at 4.82 ± 0.01, the “logKa (association constant)” value was 4.90 ± 0.11 and the “n (number of binding sites)” value stood at 0.998 ± 0.051. In data set [3], the “effect on fluorescence signal of HSA-bound warfarin at 379 nm (displacement of WAR from HSA)” value is on record as “significant decrease of the fluorescence signal at 379 nm”. Moreover, in data set [4], the “logK (binding constant)” value was found to be 4.65 ± 0.01, the “logKSV (Stern-Volmer quenching constant)” value is 4.44 ± 0.06, the “logKa (association constant)” value amounted to 4.46 ± 0.08 and the “n (number of binding sites)” value was 1.005 ± 0.029. Besides, in data set [5], the “ΔG (298.16 K) of complex formation with HSA” value is -6.429 kcal/mol and the “ΔH of complex formation with HSA” value is -2.505 kcal/mol.
As for `COc1cc2c(c3oc(=O)c4c(c13)CCC4=O)[C@@H]1CCO[C@@H]1O2` [AFB2, aflatoxin B2], the “effect on fluorescence signal of HSA-bound warfarin at 379 nm (displacement of WAR from HSA)” value in data set [3] is on record as “considerably decreased the fluorescence intensity of WAR at 379 nm”. Also, in data set [4], the “logK (binding constant)” value turned out to be 4.55 ± 0.01, the “logKSV (Stern-Volmer quenching constant)” value stood at 4.21 ± 0.02, the “logKa (association constant)” value is 4.40 ± 0.08 and the “n (number of binding sites)” value turned out to be 1.054 ± 0.000.
The like results for `COc1cc2c(c3oc(=O)c4c(c13)CCOC4=O)C1C=COC1O2` (stereo not shown) [AFG1, aflatoxin G1] were, in that order, “Very similar spectroscopic changes”, 4.58 ± 0.01, 4.33 ± 0.04, 4.43 ± 0.03 and 1.020 ± 0.019.
Taken in the same sequence, the figures for `COc1cc2c(c3oc(=O)c4c(c13)CCOC4=O)[C@@H]1CCO[C@@H]1O2` [AFG2, aflatoxin G2] were “considerably decreased the fluorescence intensity of WAR at 379 nm”, 4.34 ± 0.01, 3.96 ± 0.04, 4.04 ± 0.07 and 1.017 ± 0.025.
Taken in the same sequence, the figures for `COc1cc2c(c3oc(=O)c4c(c13)CCC4=O)[C@@]1(O)C=CO[C@H]1O2` [AFM1, aflatoxin M1] were “considerably decreased the fluorescence intensity of WAR at 379 nm”, 4.52 ± 0.01, 4.28 ± 0.01, 4.26 ± 0.00 and 1.004 ± 0.013.
With `CN(C)c1ccc(N=Nc2ccc(S(=O)(=O)[O-])cc2)cc1.[Na+]` [MO, methyl orange], in data set [6], the “logK of MO-HSA complex” value is ~ 5.
With `CC1=C2C(=CO[C@H](C)[C@H]2C)C(O)=C(C(=O)O)C1=O` [citrinin], in data set [7] (setting [8]), the “ΔG (298.16 K) of complex formation with HSA” value is -7.161 kcal/mol, the “ΔH of complex formation with HSA” value is -5.772 kcal/mol and the “ΔS of complex formation with HSA” value is recorded as 20.90 JK^−1 mol^−1.
As for `C[C@H]1CCCC(=O)CCC/C=C/c2cc(O)cc(O)c2C(=O)O1` [zearalenone], in data set [7] (setting [9]), the “ΔG (298.16 K) of complex formation with HSA” value was -6.946 kcal/mol, the “ΔH of complex formation with HSA” value is -7.192 kcal/mol and the “ΔS of complex formation with HSA” value is reported as −3.50 JK^−1 mol^−1.
